Experimental data published in patent publication US12246076B2, “Radiolabeled compounds for in vivo imaging of gastrin-releasing peptide receptor (GRPR) and treatment of GRPR-related disorders” (PROVINCIAL HEALTH SERVICES AUTHORITY, priority 2022, dated 2025).
Numbered stars: 1 amine (or outer) side, 2 acyl side, 3 side chain; on linkers, the order of the positions; unused ones are H or OH. Square brackets hold non-standard residues; d marks the D form. Peptide text beside a SMILES is read from it. * marks the point of attachment. DOTA = O=C(O)CN1CCN(CC(=O)O)CCN(CC(=O)*)CCN(CC(=O)O)CC1; Leuψ(CH2N)ThzNH2 = CC(C)C[C@@H](CN1CSC[C@H]1C(N)=O)N*; NMeH = CN[C@@H](Cc1c[nH]cn1)C(=O)O; X1 = O=C(CN1CCC(N[*:1])CC1)[*:2]; Tle = CC(C)(C)[C@H](N)C(=O)O; Thz = O=C(O)[C@@H]1CSCN1

How the values were obtained:
[1] = Ex vivo biodistribution in PC-3 tumor-bearing mice; details: male, NRG, mouse, iv, total radioactivity, 1 h post-injection, mice bearing PC-3 tumor xenografts, n = 4
[2] = in vivo; details: male, NRG, mouse, iv, total radioactivity
[3] = PC-3 tumor, Biodistribution PC3 tumor Mean
[4] = adrenal, Biodistribution Adrenal Mean
[5] = bone, Biodistribution Bone Mean
[6] = brain, Biodistribution Brain Mean
[7] = heart, Biodistribution Heart Mean
[8] = kidneys, Biodistribution Kidneys Mean
[9] = large intestine, Biodistribution Large Intestine Mean
[10] = liver, Biodistribution Liver Mean
[11] = lungs, Biodistribution Lungs Mean
[12] = muscle, Biodistribution Muscle Mean
[13] = pancreas, Biodistribution Pancreas Mean
[14] = seminal, Biodistribution Seminal Mean
[15] = small intestine, Biodistribution Small Intestine Mean
[16] = spleen, Biodistribution Spleen Mean
[17] = stomach, Biodistribution Stomach Mean
[18] = testes, Biodistribution Testes Mean
[19] = whole blood, Biodistribution Blood Mean
[20] = Biodistribution Large Intestine Mean
[21] = Biodistribution Small Intestine Mean

| tissue uptake at 1 h [1, 3] [%ID/g] | tissue uptake at 1 h [1, 14] [%ID/g] | Structure (SMILES) | tissue uptake at 1 h [1, 4] [%ID/g] | tissue uptake at 1 h [1, 5] [%ID/g] | tissue uptake at 1 h [1, 6] [%ID/g] | tissue uptake at 1 h ([1]; fat, Biodistribution Fat Mean) [%ID/g] | tissue uptake at 1 h [1, 7] [%ID/g] | tissue uptake at 1 h [1, 8] [%ID/g] | tissue uptake at 1 h [1, 9] [%ID/g] | tissue uptake at 1 h [1, 10] [%ID/g] | tissue uptake at 1 h [1, 11] [%ID/g] | tissue uptake at 1 h [1, 12] [%ID/g] | tissue uptake at 1 h [1, 13] [%ID/g] | tissue uptake at 1 h [1, 15] [%ID/g] | tissue uptake at 1 h [1, 16] [%ID/g] | tissue uptake at 1 h [1, 17] [%ID/g] | tissue uptake at 1 h [1, 18] [%ID/g] | tissue uptake at 1 h [1, 19] [%ID/g] | further results |
| --- | --- | --- | --- | --- | --- | --- | --- | --- | --- | --- | --- | --- | --- | --- | --- | --- | --- | --- | --- |
| 16.6 | 0.1 | CC(C)C[C@H](NC(=O)[C@H](Cc1cnc[nH]1)N(C)C(=O)CNC(=O)[C@@H](NC(=O)[C@H](C)NC(=O)[C@H](Cc1c[nH]c2ccccc12)NC(=O)[C@H](CCC(N)=O)NC(=O)[C@@H](Cc1ccccc1)NC(=O)CN1CCC(NC(=O)CN2CCN(CC(=O)O)CCN(CC(=O)O)CCN(CC(=O)O)CC2)CC1)C(C)(C)C)C(=O)N1CSC[C@H]1C(N)=O [^68Ga-LW01110, metal not drawn] |  |  |  |  |  |  |  |  |  |  |  |  |  |  |  |  | tissue uptake at 1 h ([2]; Biodistribution Adrenal Mean): 1.64 %ID/g; tissue uptake at 1 h ([2]; Biodistribution Blood Mean): 0.69 %ID/g; tissue uptake at 1 h ([2]; Biodistribution Bone Mean): 0.12 %ID/g; tissue uptake at 1 h ([2]; Biodistribution Brain Mean): 0.03 %ID/g; tissue uptake at 1 h ([2]; Biodistribution Fat Mean): 0.09 %ID/g; tissue uptake at 1 h ([2]; Biodistribution Heart Mean): 0.23 %ID/g; tissue uptake at 1 h ([2]; Biodistribution Kidneys Mean): 3.26 %ID/g; tissue uptake at 1 h [2, 20]: 1.27 %ID/g; tissue uptake at 1 h ([2]; Biodistribution Liver Mean): 0.41 %ID/g; tissue uptake at 1 h ([2]; Biodistribution Lungs Mean): 0.59 %ID/g; tissue uptake at 1 h ([2]; Biodistribution Muscle Mean): 0.14 %ID/g; tissue uptake at 1 h ([2]; Biodistribution Pancreas Mean): 8.99 %ID/g; tissue uptake at 1 h [2, 21]: 2.11 %ID/g; tissue uptake at 1 h ([2]; Biodistribution Spleen Mean): 0.29 %ID/g; tissue uptake at 1 h ([2]; Biodistribution Stomach Mean): 0.94 %ID/g; tissue uptake at 1 h ([2]; Biodistribution Testes Mean): 0.16 %ID/g |
| 12.4 | 3.8 | CC(C)C[C@@H](CN1CCC[C@H]1C(N)=O)NC(=O)[C@H](Cc1c[nH]cn1)NC(=O)CN(C)C(=O)[C@@H](NC(=O)[C@H](C)NC(=O)[C@H](Cc1c[nH]c2ccccc12)NC(=O)[C@H](CCC(N)=O)NC(=O)[C@@H](Cc1ccccc1)NC(=O)CN1CCC(NC(=O)CN2CCN(CC(=O)O)CCN(CC(=O)O)CCN(CC(=O)O)CC2)CC1)C(C)C [^68Ga-LW02045, metal not drawn] | 0.44 | 0.07 | 0.02 | 0.03 | 0.14 | 2.54 | 0.34 | 0.37 | 1.08 | 0.1 | 1.37 | 0.48 | 0.18 | 0.35 | 0.12 | 0.43 |  |
| 11.4 | 0.33 | CC(C)C[C@H](NC(=O)[C@H](Cc1cnc[nH]1)N(C)C(=O)CNC(=O)[C@@H](NC(=O)[C@H](C)NC(=O)[C@H](Cc1c[nH]c2ccccc12)NC(=O)[C@H](Cc1c[nH]cn1)NC(=O)[C@@H](Cc1ccccc1)NC(=O)CN1CCC(NC(=O)CN2CCN(CC(=O)O)CCN(CC(=O)O)CCN(CC(=O)O)CC2)CC1)C(C)(C)C)C(=O)N1CSC[C@H]1C(N)=O [^68Ga-LW01142, metal not drawn] ({DOTA}-[X1][dF]HWA[Tle]G[NMeH]L[Thz]-NH2) |  |  |  |  |  |  |  |  |  |  |  |  |  |  |  |  | tissue uptake at 1 h ([2]; Biodistribution Adrenal Mean): 2.07 %ID/g; tissue uptake at 1 h ([2]; Biodistribution Blood Mean): 6.88 %ID/g; tissue uptake at 1 h ([2]; Biodistribution Bone Mean): 0.47 %ID/g; tissue uptake at 1 h ([2]; Biodistribution Brain Mean): 0.15 %ID/g; tissue uptake at 1 h ([2]; Biodistribution Fat Mean): 0.32 %ID/g; tissue uptake at 1 h ([2]; Biodistribution Heart Mean): 1.62 %ID/g; tissue uptake at 1 h ([2]; Biodistribution Kidneys Mean): 6.36 %ID/g; tissue uptake at 1 h [2, 20]: 1.07 %ID/g; tissue uptake at 1 h ([2]; Biodistribution Liver Mean): 2.88 %ID/g; tissue uptake at 1 h ([2]; Biodistribution Lungs Mean): 4.59 %ID/g; tissue uptake at 1 h ([2]; Biodistribution Muscle Mean): 0.52 %ID/g; tissue uptake at 1 h ([2]; Biodistribution Pancreas Mean): 4.4 %ID/g; tissue uptake at 1 h [2, 21]: 1.7 %ID/g; tissue uptake at 1 h ([2]; Biodistribution Spleen Mean): 0.88 %ID/g; tissue uptake at 1 h ([2]; Biodistribution Stomach Mean): 0.98 %ID/g; tissue uptake at 1 h ([2]; Biodistribution Testes Mean): 1.28 %ID/g |
| 7.46 | 0.23 | CC(C)C[C@@H](CN1CSC[C@H]1C(N)=O)NC(=O)[C@H](Cc1c[nH]cn1)NC(=O)CNC(=O)[C@@H](NC(=O)[C@H](C)NC(=O)[C@H](Cc1c[nH]c2ccccc12)NC(=O)[C@H](Cc1c[nH]cn1)NC(=O)[C@@H](Cc1ccccc1)NC(=O)CN1CCC(NC(=O)CN2CCN(CC(=O)O)CCN(CC(=O)O)CCN(CC(=O)O)CC2)CC1)C(C)C [^68Ga-LW01102, metal not drawn] ({DOTA}-[X1][dF]HWAVGH-{Leuψ(CH2N)ThzNH2}) | 1.36 | 0.13 | 0.04 | 0.09 | 0.36 | 6.3 | 1.25 | 3.22 | 1.55 | 0.18 | 13.1 | 2.85 | 0.52 | 1.23 | 0.33 | 1.13 |  |

| Structure (SMILES) | tissue uptake at 1 h [1, 3] [%ID/g] | tissue uptake at 1 h [1, 14] [%ID/g] | tissue uptake at 1 h [1, 4] [%ID/g] | tissue uptake at 1 h [1, 5] [%ID/g] | tissue uptake at 1 h [1, 6] [%ID/g] | tissue uptake at 1 h ([1]; fat, Biodistribution Fat Mean) [%ID/g] | tissue uptake at 1 h [1, 7] [%ID/g] | tissue uptake at 1 h [1, 8] [%ID/g] | tissue uptake at 1 h [1, 9] [%ID/g] | tissue uptake at 1 h [1, 10] [%ID/g] | tissue uptake at 1 h [1, 11] [%ID/g] | tissue uptake at 1 h [1, 12] [%ID/g] | tissue uptake at 1 h [1, 13] [%ID/g] | tissue uptake at 1 h [1, 15] [%ID/g] | tissue uptake at 1 h [1, 16] [%ID/g] | tissue uptake at 1 h [1, 17] [%ID/g] | tissue uptake at 1 h [1, 18] [%ID/g] | tissue uptake at 1 h [1, 19] [%ID/g] | further results |
| --- | --- | --- | --- | --- | --- | --- | --- | --- | --- | --- | --- | --- | --- | --- | --- | --- | --- | --- | --- |
| CC(C)C[C@H](NC(=O)[C@H](Cc1c[nH]cn1)NC(=O)CNC(=O)[C@@H](NC(=O)[C@H](C)NC(=O)[C@H](Cc1c[nH]c2ccccc12)NC(=O)[C@H](CCC(N)=O)NC(=O)[C@@H](Cc1ccc2ccccc2c1)NC(=O)CN1CCC(NC(=O)CN2CCN(CC(=O)O)CCN(CC(=O)O)CCN(CC(=O)O)CC2)CC1)C(C)C)C(=O)N1CSC[C@H]1C(N)=O [^68Ga-LW01029, metal not drawn] | 4.7 | 0.13 | 0.82 | 0.19 | 0.04 | 0.18 | 0.36 | 4.73 | 0.96 | 0.63 | 1.82 | 0.23 | 2.56 | 1.05 | 0.45 | 0.77 | 0.33 | 1.08 |  |
| CC(C)C[C@@H](CN1CSC[C@H]1C(N)=O)NC(=O)[C@H](Cc1c[nH]cn1)NC(=O)CNC(=O)[C@@H](NC(=O)[C@H](C)NC(=O)[C@H](Cc1c[nH]c2ccccc12)NC(=O)[C@H](CCC(N)=O)NC(=O)[C@@H](Cc1ccc2ccccc2c1)NC(=O)CN1CCC(NC(=O)CN2CCN(CC(=O)O)CCN(CC(=O)O)CCN(CC(=O)O)CC2)CC1)C(C)C [^68Ga-LW01059, metal not drawn] | 6.84 |  | 1.81 | 0.42 | 0.06 | 0.19 | 0.66 | 4.49 | 0.66 | 21.5 | 3.05 | 0.28 | 7.26 | 2.15 | 0.68 | 1.1 | 0.33 | 2.16 |  |
| CC(C)C[C@H](NC(=O)[C@H](Cc1c[nH]cn1)NC(=O)CNC(=O)[C@@H](NC(=O)[C@H](C)NC(=O)[C@H](Cc1c[nH]c2ccccc12)NC(=O)[C@H](CCC(N)=O)NC(=O)[C@@H](Cc1ccccc1)NC(=O)CN1CCC(NC(=O)CN2CCN(CC(=O)O)CCN(CC(=O)O)CCN(CC(=O)O)CC2)CC1)C(C)C)C(=O)N1CSC[C@H]1C(N)=O [^68Ga-LW01025, metal not drawn] | 6.2 | 0.06 | 0.54 | 0.24 | 0.03 | 0.09 | 0.13 | 2.37 |  | 0.29 | 0.34 | 0.13 | 1.28 | 0.56 | 0.23 | 0.54 | 0.16 | 0.34 |  |
